Data taken from patent US20260265265A1, “NOVEL BENZIMIDAZOLONE DERIVATIVE COMPOUND AS AUTOTAXIN INHIBITOR” (LG CHEM, LTD., priority 2023, published 2026).

Target: T1, Recombinant Human ENPP-2/Autotaxin (Homo sapiens, UniProt Q13822)
T1 construct: purchased R&D systems 5255-EN
Test: LysoPLD activity measurement (autotaxin enzyme inhibition, choline release, TOOS reagent)
Type: biochemical
Conditions: LysoPLD inhibitory activity; substrate 14:0 LysoPC; absorbance at 555 nm
Procedure: Such a measurement method is a method of measuring the amount of choline, which is a reaction product in an autotaxin enzyme reaction, using a TOOS reagent. Depending on the activity of the autotaxin inhibitor, the amount of choline produced as a reaction product varies, which affects the final absorbance.
After 30 min, 14:0 LysoPC of the substrate diluted to a concentration of 300 μM with the enzyme reaction buffer solution was dispensed into each well by 50 μL and allowed to stand at 37° C. for 90 minutes. At this time, negative control wells were dispensed with 1% DMSO, substrate, and autotaxin instead of the compound, and positive control wells were dispensed with 1% DMSO and substrate.

SMILES | IC50 [nM]
O=C(O)c1cccc(Cn2c(=O)n(-c3ccccc3)c3cc(Cl)ccc32)c1 [Example 1, 3-((5-chloro-2-oxo-3-phenyl-2,3-dihydro-1H-benzo[d]imidazol-1-yl)methyl)benzoic acid] | 100 to 1000
CCCc1ccc(-n2c(=O)n(Cc3cccc(C(=O)O)c3)c3ccc(Cl)cc32)cc1 [Example 2, 3-((5-chloro-2-oxo-3-(4-propylphenyl)-2,3-dihydro-1H-benzo[d]imidazol-1-yl)methyl)benzoic acid] | 100 to 1000
O=C(O)c1cccc(Cn2c(=O)n(-c3ccc(F)cc3)c3cc(Cl)ccc32)c1 [Example 3, 3-((5-chloro-3-(4-fluorophenyl)-2-oxo-2,3-dihydro-1H-benzo[d]imidazol-1-yl)methyl)benzoic acid] | 100 to 1000
O=C(O)c1cccc(Cn2c(=O)n(-c3ccc(C(F)(F)F)cc3)c3cc(Cl)ccc32)c1 [Example 4, 3-((5-chloro-2-oxo-3-(4-(trifluoromethyl)phenyl)-2,3-dihydro-1H-benzo[d]imidazol-1-yl)methyl)benzoic acid] | 100 to 1000
COc1ccc(-n2c(=O)n(Cc3cccc(C(=O)O)c3)c3ccc(Cl)cc32)cc1 [Example 5, 3-((5-chloro-3-(4-methoxyphenyl)-2-oxo-2,3-dihydro-1H-benzo[d]imidazol-1-yl)methyl)benzoic acid] | 10 to 100
O=C(O)c1cccc(Cn2c(=O)n(-c3ccc(-c4ccc(Cl)cc4)cc3)c3cc(Cl)ccc32)c1 [Example 7, 3-((5-chloro-3-(4′-chloro-[1,1′-biphenyl]-4-yl)-2-oxo-2,3-dihydro-1H-benzo[d]imidazol-1-yl)methyl)benzoic acid] | 100 to 1000
Cc1ccc(-n2c(=O)n(Cc3cccc(C(=O)O)c3)c3ccc(Cl)cc32)cc1 [Example 8, 3-((5-chloro-2-oxo-3-(p-tolyl)-2,3-dihydro-1H-benzo[d]imidazol-1-yl)methyl)benzoic acid] | 100 to 1000
O=C(O)c1cccc(Cn2c(=O)n(-c3ccc4c(c3)OCO4)c3cc(Cl)ccc32)c1 [Example 9, 3-((3-(benzo[d][1,3]dioxol-5-yl)-5-chloro-2-oxo-2,3-dihydro-1H-benzo[d]imidazol-1-yl)methyl)benzoic acid] | 100 to 1000
CN(C)c1ccc(-n2c(=O)n(Cc3cccc(C(=O)O)c3)c3ccc(Cl)cc32)cc1 [Example 10, 3-((5-chloro-3-(4-(dimethylamino)phenyl)-2-oxo-2,3-dihydro-1H-benzo[d]imidazol-1-yl)methyl)benzoic acid] | 10 to 100
CC(C)C(=O)Nc1ccc(-n2c(=O)n(Cc3cccc(C(=O)O)c3)c3ccc(Cl)cc32)cc1 [Example 11, 3-((5-chloro-3-(4-isobutyramidophenyl)-2-oxo-2,3-dihydro-1H-benzo[d]imidazol-1-yl)methyl)benzoic acid] | 100 to 1000
CC(C)(C)c1ccc(-n2c(=O)n(Cc3cccc(C(=O)O)c3)c3ccc(Cl)cc32)cc1 [Example 12, 3-((3-(4-(tert-butyl)phenyl)-5-chloro-2-oxo-2,3-dihydro-1H-benzo[d]imidazol-1-yl)methyl)benzoic acid] | 100 to 1000
O=C(O)c1cccc(Cn2c(=O)n(-c3ccc(O)cc3)c3cc(Cl)ccc32)c1 [Example 13, 3-((5-chloro-3-(4-hydroxyphenyl)-2-oxo-2,3-dihydro-1H-benzo[d]imidazol-1-yl)methyl)benzoic acid] | 100 to 1000
CC(C)Oc1ccc(-n2c(=O)n(Cc3cccc(C(=O)O)c3)c3ccc(Cl)cc32)cc1 [Example 14, 3-((5-chloro-3-(4-isopropoxyphenyl)-2-oxo-2,3-dihydro-1H-benzo[d]imidazol-1-yl)methyl)benzoic acid] | 10 to 100
O=C(O)c1cccc(Cn2c(=O)n(-c3ccc(-c4ccccc4)cc3)c3cc(Cl)ccc32)c1 [Example 15, 3-((3-([1,1′-biphenyl]-4-yl)-5-chloro-2-oxo-2,3-dihydro-1H-benzo[d]imidazol-1-yl)methyl)benzoic acid] | 100 to 1000
CCCCc1ccc(-n2c(=O)n(Cc3cccc(C(=O)O)c3)c3ccc(Cl)cc32)cc1 [Example 16, 3-((3-(4-butylphenyl)-5-chloro-2-oxo-2,3-dihydro-1H-benzo[d]imidazol-1-yl)methyl)benzoic acid] | 100 to 1000
CC(C)c1ccc(-n2c(=O)n(Cc3cccc(C(=O)O)c3)c3ccc(Cl)cc32)cc1 [Example 17, 3-((5-chloro-3-(4-isopropylphenyl)-2-oxo-2,3-dihydro-1H-benzo[d]imidazol-1-yl)methyl)benzoic acid] | 100 to 1000
CC(C)(O)c1ccc(-n2c(=O)n(Cc3cccc(C(=O)O)c3)c3ccc(Cl)cc32)cc1 [Example 18, 3-((5-chloro-3-(4-(2-hydroxypropan-2-yl)phenyl)-2-oxo-2,3-dihydro-1H-benzo[d]imidazol-1-yl)methyl)benzoic acid] | 10 to 100
CS(=O)(=O)Nc1ccc(-n2c(=O)n(Cc3cccc(C(=O)O)c3)c3ccc(Cl)cc32)cc1 [Example 19, 3-((5-chloro-3-(4-(methylsulfonamido)phenyl)-2-oxo-2,3-dihydro-1H-benzo[d]imidazol-1-yl)methyl)benzoic acid] | 10 to 100
CCOc1ccc(-n2c(=O)n(Cc3cccc(C(=O)O)c3)c3ccc(Cl)cc32)cc1 [Example 20, 3-((5-chloro-3-(4-ethoxyphenyl)-2-oxo-2,3-dihydro-1H-benzo[d]imidazol-1-yl)methyl)benzoic acid] | 10 to 100
CN(C)C(=O)c1ccc(-n2c(=O)n(Cc3cccc(C(=O)O)c3)c3ccc(Cl)cc32)cc1 [Example 21, 3-((5-chloro-3-(4-(dimethylcarbamoyl)phenyl)-2-oxo-2,3-dihydro-1H-benzo[d]imidazol-1-yl)methyl)benzoic acid] | < 10
CNC(=O)c1ccc(-n2c(=O)n(Cc3cccc(C(=O)O)c3)c3ccc(Cl)cc32)cc1 [Example 22, 3-((5-chloro-3-(4-(methylcarbamoyl)phenyl)-2-oxo-2,3-dihydro-1H-benzo[d]imidazol-1-yl)methyl)benzoic acid] | 10 to 100
O=C(O)c1cccc(Cn2c(=O)n(-c3ccc(C(=O)NCC(F)(F)F)cc3)c3cc(Cl)ccc32)c1 [Example 23, 3-((5-chloro-2-oxo-3-(4-((2,2,2-trifluoroethyl)carbamoyl)phenyl)-2,3-dihydro-1H-benzo[d]imidazol-1-yl)methyl)benzoic acid] | 100 to 1000
O=C(O)c1cccc(Cn2c(=O)n(-c3ccc(N4CCOCC4)cc3)c3c(F)c(Cl)ccc32)c1 [Example 24, 3-((5-chloro-4-fluoro-3-(4-morpholinophenyl)-2-oxo-2,3-dihydro-1H-benzo[d]imidazol-1-yl)methyl)benzoic acid] | 10 to 100
CN(C)c1ccc(-n2c(=O)n(Cc3cccc(C(=O)O)c3)c3ccc(Cl)c(F)c32)cc1 [Example 25, 3-((5-chloro-3-(4-(dimethylamino)phenyl)-4-fluoro-2-oxo-2,3-dihydro-1H-benzo[d]imidazol-1-yl)methyl)benzoic acid] | 10 to 100
O=C(O)c1cccc(Cn2c(=O)n(-c3ccc(NS(=O)(=O)CC(F)(F)F)cc3)c3cc(Cl)ccc32)c1 [Example 26, 3-((5-chloro-2-oxo-3-(4-((2,2,2-trifluoroethyl)sulfonamido)phenyl)-2,3-dihydro-1H-benzo[d]imidazol-1-yl)methyl)benzoic acid] | 100 to 1000
